Experimental data from ChEMBL document CHEMBL1151757, “Synthesis, radiosynthesis, and biological evaluation of fluorine-18-labeled 2beta-carbo(fluoroalkoxy)-3beta-(3'-((Z)-2-haloethenyl)phenyl)nortropanes: candidate radioligands for in vivo imaging of the serotonin transporter with positron emission tomography” (J Med Chem, 2008).

Tests used:
[1] = Ratio of drug uptake in pons to cerebellum in anesthetized cynomolgus monkey after 85 mins postinjection; type: ADME, organism-based, Macaca fascicularis; settings: in vivo
[2] = Ratio of drug uptake in pons to cerebellum in anesthetized cynomolgus monkey after 105 mins postinjection; type: ADME, organism-based, Macaca fascicularis; settings: in vivo, 1.75 h
[3] = Ratio of drug uptake in pons to cerebellum in anesthetized cynomolgus monkey after 215 mins postinjection; type: ADME, organism-based, Macaca fascicularis; settings: in vivo
[4] = Ratio of drug uptake in medulla to cerebellum in anesthetized cynomolgus monkey after 65 mins postinjection; type: ADME, organism-based, Macaca fascicularis; settings: in vivo
[5] = Ratio of drug uptake in medulla to cerebellum in anesthetized cynomolgus monkey after 135 mins postinjection; type: ADME, organism-based, Macaca fascicularis; settings: in vivo, 2.25 h
[6] = Drug uptake in anesthetized cynomolgus monkey brain occipital lobe after 9.5 mins postinjection; type: ADME, organism-based, Macaca fascicularis; settings: in vivo
[7] = Drug uptake in anesthetized cynomolgus monkey brain occipital lobe after 105 mins postinjection; type: ADME, organism-based, Macaca fascicularis; settings: in vivo, 1.75 h
[8] = Drug uptake in anesthetized cynomolgus monkey brain occipital lobe after 125 mins postinjection; type: ADME, organism-based, Macaca fascicularis; settings: in vivo
[9] = Drug uptake in anesthetized cynomolgus monkey brain frontal lobe after 4.5 mins postinjection; type: ADME, organism-based, Macaca fascicularis; settings: in vivo, 0.075 h
[10] = Drug uptake in anesthetized cynomolgus monkey brain frontal lobe after 6.5 mins postinjection; type: ADME, organism-based, Macaca fascicularis; settings: in vivo
[11] = Drug uptake in anesthetized cynomolgus monkey brain frontal lobe after 9.5 mins postinjection; type: ADME, organism-based, Macaca fascicularis; settings: in vivo
[12] = Drug uptake in anesthetized cynomolgus monkey brain frontal lobe after 15.5 mins postinjection; type: ADME, organism-based, Macaca fascicularis; settings: in vivo
[13] = Drug uptake in anesthetized cynomolgus monkey brain frontal lobe after 22.5 mins postinjection; type: ADME, organism-based, Macaca fascicularis; settings: in vivo, 0.375 h
[14] = Drug uptake in anesthetized cynomolgus monkey brain frontal lobe after 27.5 mins postinjection; type: ADME, organism-based, Macaca fascicularis; settings: in vivo
[15] = Drug uptake in anesthetized cynomolgus monkey brain frontal lobe after 35 mins postinjection; type: ADME, organism-based, Macaca fascicularis; settings: in vivo
[16] = Drug uptake in anesthetized cynomolgus monkey brain frontal lobe after 85 mins postinjection; type: ADME, organism-based, Macaca fascicularis; settings: in vivo
[17] = Drug uptake in anesthetized cynomolgus monkey brain frontal lobe after 215 mins postinjection; type: ADME, organism-based, Macaca fascicularis; settings: in vivo
[18] = Drug uptake in anesthetized cynomolgus monkey brain frontal lobe after 225 mins postinjection; type: ADME, organism-based, Macaca fascicularis; settings: in vivo, 3.75 h
[19] = Ratio of drug uptake in midbrain to cerebellum in anesthetized cynomolgus monkey after 185 mins postinjection; type: ADME, organism-based, Macaca fascicularis; settings: in vivo
[20] = Ratio of drug uptake in occipital lobe to cerebellum in anesthetized cynomolgus monkey after 125 mins postinjection; type: ADME, organism-based, Macaca fascicularis; settings: in vivo
Putamen [21] = assay: Drug uptake in anesthetized cynomolgus monkey brain putamen after 175 mins postinjection; type: ADME, organism-based, Macaca fascicularis; settings: in vivo
Thalamus [22] = assay: Drug uptake in anesthetized cynomolgus monkey brain thalamus after 0.5 mins postinjection; type: ADME, organism-based, Macaca fascicularis; settings: in vivo
[23] = Ratio of drug uptake in frontal lobe to cerebellum in anesthetized cynomolgus monkey after 35 mins postinjection; type: ADME, organism-based, Macaca fascicularis; settings: in vivo
Pons [24] = assay: Drug uptake in anesthetized cynomolgus monkey brain pons after 0.5 mins postinjection; type: ADME, organism-based, Macaca fascicularis; settings: in vivo
Pons [25] = assay: Drug uptake in anesthetized cynomolgus monkey brain pons after 27.5 mins postinjection; type: ADME, organism-based, Macaca fascicularis; settings: in vivo
Pons [26] = assay: Drug uptake in anesthetized cynomolgus monkey brain pons after 105 mins postinjection; type: ADME, organism-based, Macaca fascicularis; settings: in vivo, 1.75 h
Thalamus [27] = assay: Drug uptake in anesthetized cynomolgus monkey brain thalamus after 195 mins postinjection; type: ADME, organism-based, Macaca fascicularis; settings: in vivo, 3.25 h
Pons [28] = assay: Drug uptake in anesthetized cynomolgus monkey brain pons after 205 mins postinjection; type: ADME, organism-based, Macaca fascicularis; settings: in vivo
Medulla [29] = assay: Drug uptake in anesthetized cynomolgus monkey brain medulla after 195 mins postinjection; type: ADME, organism-based, Macaca fascicularis; settings: in vivo, 3.25 h
Medulla [30] = assay: Drug uptake in anesthetized cynomolgus monkey brain medulla after 205 mins postinjection; type: ADME, organism-based, Macaca fascicularis; settings: in vivo
Putamen [31] = assay: Drug uptake in anesthetized cynomolgus monkey brain putamen after 195 mins postinjection; type: ADME, organism-based, Macaca fascicularis; settings: in vivo, 3.25 h
[32] = Ratio of drug uptake in caudate to cerebellum in anesthetized cynomolgus monkey after 55 mins postinjection; type: ADME, organism-based, Macaca fascicularis; settings: in vivo
[33] = Ratio of drug uptake in caudate to cerebellum in anesthetized cynomolgus monkey after 155 mins postinjection; type: ADME, organism-based, Macaca fascicularis; settings: in vivo
Pons [34] = assay: Drug uptake in anesthetized cynomolgus monkey brain pons after 175 mins postinjection; type: ADME, organism-based, Macaca fascicularis; settings: in vivo
Medulla [35] = assay: Drug uptake in anesthetized cynomolgus monkey brain medulla after 4.5 mins postinjection; type: ADME, organism-based, Macaca fascicularis; settings: in vivo, 0.075 h
Medulla [36] = assay: Drug uptake in anesthetized cynomolgus monkey brain medulla after 15.5 mins postinjection; type: ADME, organism-based, Macaca fascicularis; settings: in vivo
Medulla [37] = assay: Drug uptake in anesthetized cynomolgus monkey brain medulla after 45 mins postinjection; type: ADME, organism-based, Macaca fascicularis; settings: in vivo, 0.75 h
[38] = Ratio of drug uptake in caudate to cerebellum in anesthetized cynomolgus monkey after 225 mins postinjection; type: ADME, organism-based, Macaca fascicularis; settings: in vivo, 3.75 h
Medulla [39] = assay: Drug uptake in anesthetized cynomolgus monkey brain medulla after 145 mins postinjection; type: ADME, organism-based, Macaca fascicularis; settings: in vivo
Medulla [40] = assay: Drug uptake in anesthetized cynomolgus monkey brain medulla after 155 mins postinjection; type: ADME, organism-based, Macaca fascicularis; settings: in vivo
[41] = Octanol-water partition coefficient, log P at pH 7.4 by shake-flask method; type: physicochemical
[42] = Ratio of drug uptake in putamen to cerebellum in anesthetized cynomolgus monkey after 155 mins postinjection; type: ADME, organism-based, Macaca fascicularis; settings: in vivo
[43] = Drug uptake in anesthetized cynomolgus monkey brain cerebellum after 4.5 mins postinjection; type: ADME, organism-based, Macaca fascicularis; settings: in vivo, 0.075 h
[44] = Drug uptake in anesthetized cynomolgus monkey brain cerebellum after 15.5 mins postinjection; type: ADME, organism-based, Macaca fascicularis; settings: in vivo
[45] = Drug uptake in anesthetized cynomolgus monkey brain cerebellum after 22.5 mins postinjection; type: ADME, organism-based, Macaca fascicularis; settings: in vivo, 0.375 h
[46] = Drug uptake in anesthetized cynomolgus monkey brain cerebellum after 27.5 mins postinjection; type: ADME, organism-based, Macaca fascicularis; settings: in vivo
[47] = Ratio of drug uptake in thalamus to cerebellum in anesthetized cynomolgus monkey after 135 mins postinjection; type: ADME, organism-based, Macaca fascicularis; settings: in vivo, 2.25 h
Caudate [48] = assay: Drug uptake in anesthetized cynomolgus monkey brain caudate after 6.5 mins postinjection; type: ADME, organism-based, Macaca fascicularis, Caudate nucleus; settings: in vivo
Caudate [49] = assay: Drug uptake in anesthetized cynomolgus monkey brain caudate after 9.5 mins postinjection; type: ADME, organism-based, Macaca fascicularis, Caudate nucleus; settings: in vivo
Caudate [50] = assay: Drug uptake in anesthetized cynomolgus monkey brain caudate after 27.5 mins postinjection; type: ADME, organism-based, Macaca fascicularis, Caudate nucleus; settings: in vivo
Caudate [51] = assay: Drug uptake in anesthetized cynomolgus monkey brain caudate after 105 mins postinjection; type: ADME, organism-based, Macaca fascicularis, Caudate nucleus; settings: in vivo, 1.75 h
Caudate [52] = assay: Drug uptake in anesthetized cynomolgus monkey brain caudate after 135 mins postinjection; type: ADME, organism-based, Macaca fascicularis, Caudate nucleus; settings: in vivo, 2.25 h
Caudate [53] = assay: Drug uptake in anesthetized cynomolgus monkey brain caudate after 155 mins postinjection; type: ADME, organism-based, Macaca fascicularis, Caudate nucleus; settings: in vivo
[54] = Ratio of drug uptake in occipital lobe to cerebellum in anesthetized cynomolgus monkey after 0.5 mins postinjection; type: ADME, organism-based, Macaca fascicularis; settings: in vivo
Thalamus [55] = assay: Drug uptake in anesthetized cynomolgus monkey brain thalamus after 12.5 mins postinjection; type: ADME, organism-based, Macaca fascicularis; design: unit not given here; settings: in vivo
Thalamus [56] = assay: Drug uptake in anesthetized cynomolgus monkey brain thalamus after 18.5 mins postinjection; type: ADME, organism-based, Macaca fascicularis; design: unit not given here; settings: in vivo
Thalamus [57] = assay: Drug uptake in anesthetized cynomolgus monkey brain thalamus after 35 mins postinjection; type: ADME, organism-based, Macaca fascicularis; design: unit not given here; settings: in vivo
Putamen [58] = assay: Drug uptake in anesthetized cynomolgus monkey brain putamen after 15.5 mins postinjection; type: ADME, organism-based, Macaca fascicularis; design: unit not given here; settings: in vivo
Putamen [59] = assay: Drug uptake in anesthetized cynomolgus monkey brain putamen after 18.5 mins postinjection; type: ADME, organism-based, Macaca fascicularis; design: unit not given here; settings: in vivo
Putamen [60] = assay: Drug uptake in anesthetized cynomolgus monkey brain putamen after 95 mins postinjection; type: ADME, organism-based, Macaca fascicularis; design: unit not given here; settings: in vivo
Putamen [61] = assay: Drug uptake in anesthetized cynomolgus monkey brain putamen after 105 mins postinjection; type: ADME, organism-based, Macaca fascicularis; design: unit not given here; settings: in vivo, 1.75 h
Thalamus [62] = assay: Drug uptake in anesthetized cynomolgus monkey brain thalamus after 65 mins postinjection; type: ADME, organism-based, Macaca fascicularis; design: unit not given here; settings: in vivo
Thalamus [63] = assay: Drug uptake in anesthetized cynomolgus monkey brain thalamus after 75 mins postinjection; type: ADME, organism-based, Macaca fascicularis; design: unit not given here; settings: in vivo, 1.25 h
Midbrain [64] = assay: Drug uptake in anesthetized cynomolgus monkey brain midbrain after 0.5 mins postinjection; type: ADME, organism-based, Macaca fascicularis; design: unit not given here; settings: in vivo
Midbrain [65] = assay: Drug uptake in anesthetized cynomolgus monkey brain midbrain after 12.5 mins postinjection; type: ADME, organism-based, Macaca fascicularis; design: unit not given here; settings: in vivo
Midbrain [66] = assay: Drug uptake in anesthetized cynomolgus monkey brain midbrain after 35 mins postinjection; type: ADME, organism-based, Macaca fascicularis; design: unit not given here; settings: in vivo
Midbrain [67] = assay: Drug uptake in anesthetized cynomolgus monkey brain midbrain after 85 mins postinjection; type: ADME, organism-based, Macaca fascicularis; design: unit not given here; settings: in vivo
Midbrain [68] = assay: Drug uptake in anesthetized cynomolgus monkey brain midbrain after 95 mins postinjection; type: ADME, organism-based, Macaca fascicularis; design: unit not given here; settings: in vivo

`O=C(OCCC[18F])C1C2CCC(CC1c1cccc(/C=C\I)c1)N2` (stereo not drawn) gave a Ratio [1] of 1.1, a Ratio [2] of 1.2 and a Ratio [3] of 1.5. For the same compound, the Ratio [4] was 1.2, the Ratio [5] was 1.7 and the Drug uptake [6] was 3.14. It also gave a Drug uptake [7] of 3.18, a Drug uptake [8] of 2.96 and a Drug uptake [9] of 1.31. The Drug uptake [10] was 1.88, the Drug uptake [11] was 2.11 and the Drug uptake [12] was 2.42. For the same compound, the Drug uptake [13] was 2.64, the Drug uptake [14] was 2.72 and the Drug uptake [15] was 2.85. The Drug uptake [16] was 2.71, the Drug uptake [17] was 1.99 and the Drug uptake [18] was 1.82. It also gave a Ratio [19] of 1.9, a Ratio [20] of 1.1 and a Drug uptake (Putamen [21]) of 3.61. The Drug uptake (Thalamus [22]) was 0.01, the Ratio [23] was 0.6 and the Drug uptake (Pons [24]) was 0.01. It also gave a Drug uptake (Pons [25]) of 4.39, a Drug uptake (Pons [26]) of 4.01 and a Drug uptake (Thalamus [27]) of 3.2. It also gave a Drug uptake (Pons [28]) of 3.34, a Drug uptake (Medulla [29]) of 3.78 and a Drug uptake (Medulla [30]) of 3.76. For the same compound, the Drug uptake (Putamen [31]) was 3.39, the Ratio [32] was 0.9 and the Ratio [33] was 1.4. It also gave a Drug uptake (Pons [34]) of 3.41, a Drug uptake (Medulla [35]) of 2.58 and a Drug uptake (Medulla [36]) of 4.36. It also gave a Drug uptake (Medulla [37]) of 5.13, a Ratio [38] of 1.3 and a Drug uptake (Medulla [39]) of 4.24. The Drug uptake (Medulla [40]) was 4.09, the logD [41] was 1.64 and the Ratio [42] was 1.6. For the same compound, the Drug uptake [43] was 2.5, the Drug uptake [44] was 4.75 and the Drug uptake [45] was 4.78. It also gave a Drug uptake [46] of 4.8, a Ratio [47] of 1.5 and a Drug uptake (Caudate [48]) of 2.53. It also gave a Drug uptake (Caudate [49]) of 2.7, a Drug uptake (Caudate [50]) of 3.68 and a Drug uptake (Caudate [51]) of 3.7. The Drug uptake (Caudate [52]) was 3.34, the Drug uptake (Caudate [53]) was 3.19 and the Ratio [54] was 0.8. For the same compound, the Drug uptake (Thalamus [55]) was 3.75, the Drug uptake (Thalamus [56]) was 4.22 and the Drug uptake (Thalamus [57]) was 4.81. It also gave a Drug uptake (Putamen [58]) of 4.27, a Drug uptake (Putamen [59]) of 4.42 and a Drug uptake (Putamen [60]) of 4.67. It also gave a Drug uptake (Putamen [61]) of 4.52, a Drug uptake (Thalamus [62]) of 4.79 and a Drug uptake (Thalamus [63]) of 4.76. For the same compound, the Drug uptake (Midbrain [64]) was 0.01, the Drug uptake (Midbrain [65]) was 4.11 and the Drug uptake (Midbrain [66]) was 5.01. The Drug uptake (Midbrain [67]) was 4.92 and the Drug uptake (Midbrain [68]) was 4.77.
